Data: US20240383856A1 (Zedira GmbH, priority 2021, published 2024)
pIC50: −log10 of the molar value.

Tests used:
[1] = molecular target: T1, recombinant human transglutaminase 2 (Homo sapiens, UniProt P21980); assay: Transglutaminase assay (DCC-assay): incorporation of dansylcadaverine into dimethylcasein; assay type: biochemical; conditions: recombinant human TG2 10 nM; dansylcadaverine incorporation into dimethylcasein; read-out: IC50 TG2
T1 construct: purchased Zedira T022
T1 sequence (P21980 1-687): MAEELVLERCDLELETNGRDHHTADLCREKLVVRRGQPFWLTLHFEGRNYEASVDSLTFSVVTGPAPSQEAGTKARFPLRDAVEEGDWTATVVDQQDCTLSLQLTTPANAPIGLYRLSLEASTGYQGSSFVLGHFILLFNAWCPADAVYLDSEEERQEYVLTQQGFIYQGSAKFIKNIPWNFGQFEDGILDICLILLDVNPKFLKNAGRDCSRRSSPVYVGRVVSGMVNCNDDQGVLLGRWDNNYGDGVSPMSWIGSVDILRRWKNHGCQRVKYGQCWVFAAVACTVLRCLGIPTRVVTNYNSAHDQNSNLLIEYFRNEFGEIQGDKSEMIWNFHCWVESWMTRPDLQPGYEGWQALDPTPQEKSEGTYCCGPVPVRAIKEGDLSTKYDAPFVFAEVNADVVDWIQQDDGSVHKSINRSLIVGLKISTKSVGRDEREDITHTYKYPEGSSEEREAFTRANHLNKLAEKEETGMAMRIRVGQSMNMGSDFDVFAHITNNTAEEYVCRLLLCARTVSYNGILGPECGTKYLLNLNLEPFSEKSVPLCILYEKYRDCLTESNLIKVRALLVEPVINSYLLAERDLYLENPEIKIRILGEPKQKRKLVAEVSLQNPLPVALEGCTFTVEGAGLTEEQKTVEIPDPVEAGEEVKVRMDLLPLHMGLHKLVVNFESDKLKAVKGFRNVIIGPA
Outline: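 IC50 is the inhibitor level that blocks 50% of initial activity. Activity is the fluorescence slope (λex 330, λem 500 nm) between 20 and 30 min of a 37 °C run, relative to a 2% DMSO control. The enzyme is recombinant human tissue transglutaminase, 10 nM final, tested against a 1:2 inhibitor dilution series in a pH 8.0 mix with 10 mM CaCl2, 10 mM glutathione, 16.7 µM dansylcadaverine and 4 µM N,N-dimethylcasein.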

[2] = logD by shake flask method (octanol / PBS pH 7.4, HPLC); assay type: physicochemical; conditions: octanol / PBS pH 7.4, shake flask
Outline: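 LogD obtained by HPLC measurement of how the compound distributes between PBS (pH 7.4) and octanol in a shake-flask experiment.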

[3] = Caco-2 permeability assay (CacoReady kit); assay type: in vitro ADME; conditions: human, Caco-2, Caco-2 barrier, CacoReady kit; above 1×10^−6 cm/s classified as permeable
Outline: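 Compounds are tested on pre-formed Caco-2 barriers supplied as a ready-to-use kit, following the kit protocol, and the Papp value is derived to estimate intestinal absorption.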

Row | Compound | pIC50 [1] | logD [2] | Papp [3] [×10⁻⁶ cm/s]
1 | CNC(=O)C(=O)CC[C@H](NC(=O)c1scc(C)c1Cl)C(=O)Nc1cccn(CC(=O)NC2C3CC4CC(C3)CC2C4)c1=O (stereo partly drawn) [II-43, (S)-2-(3-chloro-4-methylthiophene-2-carboxamido)-N1-(1-(2-(2-adamantylamino)-2-oxoethyl)-2-oxo-1,2-dihydropyridin-3-yl)-N6-methyl-5-oxohexanediamide] | 5.60 to 6.40 | 1 to 3 | 1 to 10
2 | CNC(=O)C(=O)CC[C@H](NC(=O)c1cc(Br)c(Cl)s1)C(=O)Nc1cccn(CC(=O)NC2C3CC4CC(C3)CC2C4)c1=O (stereo partly drawn) [II-44, (S)-2-(4-bromo-5-chlorothiophene-2-carboxamido)-N1-(1-(2-(2-adamantylamino)-2-oxoethyl)-2-oxo-1,2-dihydropyridin-3-yl)-N6-methyl-5-oxohexanediamide] | > 7.40 | 3 to 5 | 1 to 10
3 | CNC(=O)C(=O)CC[C@H](NC(=O)c1cc(Br)c(Br)s1)C(=O)Nc1cccn(CC(=O)NC2C3CC4CC(C3)CC2C4)c1=O (stereo partly drawn) [II-45, (S)-2-(4,5-dibromothiophene-2-carboxamido)-N1-(1-(2-(2-adamantylamino)-2-oxoethyl)-2-oxo-1,2-dihydropyridin-3-yl)-N6-methyl-5-oxohexanediamide] | > 7.40 | 3 to 5 | 1 to 10
4 | CNC(=O)C(=O)CC[C@H](NC(=O)c1sc(Br)c(Br)c1OC)C(=O)Nc1cccn(CC(=O)NC2C3CC4CC(C3)CC2C4)c1=O (stereo partly drawn) [II-46, (S)-2-(4,5-dibromo-3-methoxythiophene-2-carboxamido)-N1-(1-(2-(2-adamantylamino)-2-oxoethyl)-2-oxo-1,2-dihydropyridin-3-yl)-N6-methyl-5-oxohexanediamide] | 6.40 to 7.40 | 3 to 5 | < 1
5 | CNC(=O)C(=O)CC[C@H](NC(=O)c1cc(Br)co1)C(=O)Nc1cccn(CC(=O)NC2C3CC4CC(C3)CC2C4)c1=O (stereo partly drawn) [II-47, (S)-2-(4-bromofuran-2-carboxamido)-N1-(1-(2-(2-adamantylamino)-2-oxoethyl)-2-oxo-1,2-dihydropyridin-3-yl)-N6-methyl-5-oxohexanediamide] | > 7.40 | 1 to 3 | 1 to 10
6 | CNC(=O)C(=O)CC[C@H](NC(=O)c1cc(Br)c(Br)o1)C(=O)Nc1cccn(CC(=O)NC2C3CC4CC(C3)CC2C4)c1=O (stereo partly drawn) [II-48, (S)-2-(4,5-dibromofuran-2-carboxamido)-N1-(1-(2-(2-adamantylamino)-2-oxoethyl)-2-oxo-1,2-dihydropyridin-3-yl)-N6-methyl-5-oxohexanediamide] | > 7.40 | 3 to 5 | 1 to 10
7 | CNC(=O)C(=O)CC[C@H](NC(=O)c1cc(Cl)c(Cl)s1)C(=O)Nc1cccn(CC(=O)NC2C3CC4CC(C3)CC2C4)c1=O (stereo partly drawn) [II-49, (S)-2-(4,5-dichlorothiophene-2-carboxamido)-N1-(1-(2-(2-adamantylamino)-2-oxoethyl)-2-oxo-1,2-dihydropyridin-3-yl)-N6-methyl-5-oxohexanediamide] | > 7.40 | 3 to 5 | 1 to 10
8 | CNC(=O)C(=O)CC[C@H](NC(=O)c1nn[nH]n1)C(=O)Nc1cccn(CC(=O)NC2C3CC4CC(C3)CC2C4)c1=O (stereo partly drawn) [II-52, (S)-N1-(1-(2-(2-adamantylamino)-2-oxoethyl)-2-oxo-1,2-dihydropyridin-3-yl)-N6-methyl-5-oxo-2-(2H-tetrazole-5-carboxamido)hexanediamide] | 5.60 to 6.40 | < 1 | < 1
9 | CNC(=O)C(=O)CC[C@H](NC(=O)c1cnccn1)C(=O)Nc1cccn(CC(=O)NC2C3CC4CC(C3)CC2C4)c1=O (stereo partly drawn) [II-53, (S)-N1-(1-(2-(2-adamantylamino)-2-oxoethyl)-2-oxo-1,2-dihydropyridin-3-yl)-N6-methyl-5-oxo-2-(pyrazine-2-carboxamido)hexanediamide] | 6.40 to 7.40 | 1 to 3 | < 1
10 | CNC(=O)C(=O)CC[C@H](NC(=O)[C@H]1CCNC1)C(=O)Nc1cccn(CC(=O)NC2C3CC4CC(C3)CC2C4)c1=O (stereo partly drawn) [II-55, (S)-N1-(1-(2-(2-adamantylamino)-2-oxoethyl)-2-oxo-1,2-dihydropyridin-3-yl)-N6-methyl-5-oxo-2-((S)-pyrrolidine-3-carboxamido)hexanediamide] | 6.40 to 7.40 | < 1 | < 1
11 | CNC(=O)C(=O)CC[C@H](NC(=O)[C@@H]1C[C@H](Br)CN1)C(=O)Nc1cccn(CC(=O)NC2C3CC4CC(C3)CC2C4)c1=O (stereo partly drawn) [II-56, (S)-2-((2S,4S)-4-bromopyrrolidine-2-carboxamido)-N1-(1-(2-(2-adamantylamino)-2-oxoethyl)-2-oxo-1,2-dihydropyridin-3-yl)-N6-methyl-5-oxohexanediamide] | 6.40 to 7.40 | 1 to 3 | < 1
12 | CNC(=O)C(=O)CC[C@H](NC(=O)[C@@H]1CCCCN1)C(=O)Nc1cccn(CC(=O)NC2C3CC4CC(C3)CC2C4)c1=O (stereo partly drawn) [II-58, (S)-N1-(1-(2-(2-adamantylamino)-2-oxoethyl)-2-oxo-1,2-dihydropyridin-3-yl)-N6-methyl-5-oxo-2-((S)-piperidine-2-carboxamido)hexanediamide] | 6.40 to 7.40 | 1 to 3 | < 1

Results, then the compound that gave them:

Row | pIC50 [1] | logD [2] | Papp [3] [×10⁻⁶ cm/s] | Compound
13 | > 7.40 | < 1 | < 1 | CNC(=O)C(=O)CC[C@H](NC(=O)[C@@H]1CCCN1C(C)=O)C(=O)Nc1cccn(CC(=O)NC2C3CC4CC(C3)CC2C4)c1=O (stereo partly drawn) [II-50, (S)-2-((S)-1-acetylpyrrolidine-2-carboxamido)-N1-(1-(2-(2-adamantylamino)-2-oxoethyl)-2-oxo-1,2-dihydropyridin-3-yl)-N6-methyl-5-oxohexanediamide]
14 | 6.40 to 7.40 | < 1 | 1 to 10 | CNC(=O)C(=O)CC[C@H](NC(=O)c1cnnn1C)C(=O)Nc1cccn(CC(=O)NC2C3CC4CC(C3)CC2C4)c1=O (stereo partly drawn) [II-51, (S)-N1-(1-(2-(2-adamantylamino)-2-oxoethyl)-2-oxo-1,2-dihydropyridin-3-yl)-N6-methyl-2-(1-methyl-1H-1,2,3-triazole-5-carboxamido)-5-oxohexanediamide]
15 | 6.40 to 7.40 | 1 to 3 | < 1 | CNC(=O)C(=O)CC[C@H](NC(=O)[C@@H]1CCCN1C)C(=O)Nc1cccn(CC(=O)NC2C3CC4CC(C3)CC2C4)c1=O (stereo partly drawn) [II-54, (S)-N1-(1-(2-(2-adamantylamino)-2-oxoethyl)-2-oxo-1,2-dihydropyridin-3-yl)-N6-methyl-2-((S)-1-methylpyrrolidine-2-carboxamido)-5-oxohexanediamide]
16 | 6.40 to 7.40 | 1 to 3 | < 1 | CNC(=O)C(=O)CC[C@H](NC(=O)[C@@H]1CCCNC1)C(=O)Nc1cccn(CC(=O)NC2C3CC4CC(C3)CC2C4)c1=O (stereo partly drawn) [II-59, (S)-N1-(1-(2-(2-adamantylamino)-2-oxoethyl)-2-oxo-1,2-dihydropyridin-3-yl)-N6-methyl-5-oxo-2-((R)-piperidine-3-carboxamido)hexanediamide]
17 | 6.40 to 7.40 | < 1 | < 1 | CNC(=O)C(=O)CC[C@H](NC(=O)[C@H]1COCCN1)C(=O)Nc1cccn(CC(=O)NC2C3CC4CC(C3)CC2C4)c1=O (stereo partly drawn) [II-60, (S)-N1-(1-(2-(2-adamantylamino)-2-oxoethyl)-2-oxo-1,2-dihydropyridin-3-yl)-N6-methyl-2-((R)-morpholine-3-carboxamido)-5-oxohexanediamide]
